According to patent US7452885B2, “Amino-5-(6-membered)heteroarylimidazolone compounds and the use thereof for β-secretase modulation” (Wyeth, priority 2005, dated 2008):
Where two headings read alike, the source gives them in different places.

How the values were obtained:
[1] = molecular target: human BACE1 (Homo sapiens, UniProt P56817); experiment: Fluorescent kinetic assay, BACE-1 (Example 114); assay type: biochemical
Experimental: Evaluation of BACE-1 Binding Affinity of Test Compounds
Fluorescent Kinetic Assays
Dilution and mixing steps: total reaction volume: 100 μL
100 μM substrate dilution in 1×PBS was prepared, and
Fluorescence Readings: Readings at λex 320 nm and εem 420 nm are taken every 40 sec for 30 min at room temperature and the linear slope for substrate cleavage rate (vi) determined.

[2] = 10 nM human BACE1, 25 μM substrate WABC-6, 50 mM Na-Acetate pH 4.5, room temperature, read-out: BACE-1 (IC50 μM)

Chain of human BACE1 (P56817 46-501): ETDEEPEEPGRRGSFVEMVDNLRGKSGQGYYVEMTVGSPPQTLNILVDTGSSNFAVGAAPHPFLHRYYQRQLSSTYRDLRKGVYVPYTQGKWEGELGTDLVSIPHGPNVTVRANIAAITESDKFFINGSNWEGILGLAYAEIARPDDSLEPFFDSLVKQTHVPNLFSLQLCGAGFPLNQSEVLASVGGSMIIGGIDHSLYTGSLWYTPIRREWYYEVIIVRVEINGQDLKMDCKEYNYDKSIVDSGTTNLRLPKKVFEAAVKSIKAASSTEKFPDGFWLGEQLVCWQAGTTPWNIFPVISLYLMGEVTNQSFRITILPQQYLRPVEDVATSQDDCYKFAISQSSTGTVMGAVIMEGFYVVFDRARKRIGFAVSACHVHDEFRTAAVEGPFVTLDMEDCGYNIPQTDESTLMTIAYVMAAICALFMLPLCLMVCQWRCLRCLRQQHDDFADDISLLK

IC50 [1] | melting point | IC50 [1, 2] | SMILES
 |  | > 1 µM | CN1C(=O)[C@](c2ccncc2)(c2ccc(F)c(-c3cccnc3F)c2)N=C1N [Example 113A, (5R)-2-amino-5-[4-fluoro-3-(2-fluoropyridin-3-yl)phenyl]-3-methyl-5-pyridin-4-yl-3,5-dihydro-4H-imidazol-4-one]
0.01 to 0.1 µM | 161 to 163 °C |  | Cc1cc(C2(c3cccc(-c4cc(F)ccc4F)c3)N=C(N)N(C)C2=O)ccn1 (centres unmarked) [Example 62]
 |  | 0.11 to 1 µM | Cc1cc(C2(c3cccc(-c4cnccn4)c3)N=C(N)N(C)C2=O)cc(C)n1 (centres unmarked) [Example 101]
0.01 to 0.1 µM |  |  | CC(C)c1cc(C2(c3cccc(-c4cncnc4)c3)N=C(N)N(C)C2=O)ccn1 (centres unmarked) [Example 87]
 | 188 to 192 °C |  | CCc1cc(C2(c3cccc(-c4cc(F)ccc4F)c3)N=C(N)N(C)C2=O)ccn1 (centres unmarked) [Example 65]
 | 155 to 157 °C | 0.01 to 0.1 µM | CCc1cc(C2(c3ccc(F)c(-c4cncc(F)c4)c3)N=C(N)N(C)C2=O)cc(CC)n1 (centres unmarked) [Example 104, 2-Amino-5-(2,6-diethyl-pyridin-4-yl)-5-[4-fluoro-3-(5-fluoropyridin-3-yl)-phenyl]-3-methyl-3,5-dihydro-imidazol-4-one]
0.11 to 1 µM |  |  | Cc1cc(C2(c3cccc(-c4cncnc4)c3)N=C(N)N(C)C2=O)cc(C)n1 (centres unmarked) [Example 75]
 | 130 to 134 °C | 0.11 to 1 µM | CCc1cc(C2(c3cccc(-c4cnccn4)c3)N=C(N)N(C)C2=O)cc(C)n1 (centres unmarked) [Example 86]
 |  | > 1 µM | CCc1cc([C@@]2(c3cccc(-c4ccc(F)nc4)c3)N=C(N)N(C)C2=O)cc(CC)n1 [Example 108A, (5R)-2-Amino-5-(2,6-diethylpyridin-4-yl)-5-[3-(6-fluoropyridin-3-yl)phenyl]-3-methyl-3,5-dihydro-4H-imidazol-4-one]
0.11 to 1 µM |  |  | CCc1cc(C2(c3cccc(-c4cncnc4)c3)N=C(N)N(C)C2=O)cc(C)n1 (centres unmarked) [Example 84]
 | 173 to 175 °C | > 1 µM | CN1C(=O)C(c2ccc(OC(F)F)cc2)(c2cccnc2)N=C1N (centres unmarked) [Example 111, 2-amino-5-[4-(difluoromethoxy)phenyl]-3-methyl-5-pyridin-3-yl-3,5-dihydro-4H-imidazol-4-one]
0.11 to 1 µM | 68 to 70 °C |  | CCc1cc(C2(c3cccc(OCC4CC4)c3)N=C(N)N(C)C2=O)cc(CC)n1 (centres unmarked) [Example 72]
 |  | 0.11 to 1 µM | CCc1cc(C2(c3cccc(-c4ccc(F)nc4)c3)N=C(N)N(C)C2=O)cc(CC)n1 (centres unmarked) [Example 93]
> 1 µM |  |  | CCc1cc([C@@]2(c3cccc(-c4cncnc4)c3)N=C(N)N(C)C2=O)cc(CC)n1 [Example 103A]
 |  | 0.11 to 1 µM | COc1ncc(C2(c3cccc(-c4cccnc4F)c3)N=C(N)N(C)C2=O)c(OC)n1 (centres unmarked) [Example 98]
 |  | 0.11 to 1 µM | COc1ccc(C2(c3ccnc(-c4ccccc4)c3)N=C(N)N(C)C2=O)cc1C (centres unmarked) [Example 109, 2-Amino-5-(4-methoxy-3-methylphenyl)-3-methyl-5-(2-phenylpyridin-4-yl)-3,5-dihydro-4H-imidazol-4-one]
0.01 to 0.1 µM |  |  | CCc1cc(C2(c3cccc(-c4cncnc4)c3)N=C(N)N(C)C2=O)cc(CC)n1 (centres unmarked) [Example 91]
 |  | > 1 µM | CN1C(=O)[C@@](c2ccncc2)(c2ccc(F)c(-c3cccnc3F)c2)N=C1N [Example 113B, (5S)-2-amino-5-[4-fluoro-3-(2-fluoropyridin-3-yl)phenyl]-3-methyl-5-pyridin-4-yl-3,5-dihydro-4H-imidazol-4-one]
 |  | > 1 µM | COc1ncc(C2(c3cccc(-c4cncnc4)c3)N=C(N)N(C)C2=O)c(OC)n1 (centres unmarked) [Example 97]
0.01 to 0.1 µM |  |  | CCc1cc([C@]2(c3cccc(-c4cncnc4)c3)N=C(N)N(C)C2=O)cc(CC)n1 [Example 103B]
 |  | 0.01 to 0.1 µM | CCc1cc([C@]2(c3cccc(-c4ccc(F)nc4)c3)N=C(N)N(C)C2=O)cc(CC)n1 [Example 108B, (5S)-2-Amino-5-(2,6-diethylpyridin-4-yl)-5-[3-(6-fluoropyridin-3-yl)phenyl]-3-methyl-3,5-dihydro-4H-imidazol-4-one]
 | 181 to 186 °C |  | Cc1cc(C2(c3cccc(-c4cncnc4)c3)N=C(N)N(C)C2=O)cc[n+]1[O-] (centres unmarked) [Example 102]

Second part, the molecule before the results:

SMILES | IC50 [1] | melting point | IC50 [1, 2]
CN1C(=O)C(c2ccncc2)(c2cccc(-c3cccnc3F)c2)N=C1N (centres unmarked) [Example 43] | 0.01 to 0.1 µM |  | 
CN1C(=O)C(c2ccncc2)(c2ccc(F)c(-c3cccnc3F)c2)N=C1N (centres unmarked) [Example 59] | 0.01 to 0.1 µM | 218 to 220 °C | 
CCc1cc(C2(c3ccc(F)c(-c4cnccc4F)c3)N=C(N)N(C)C2=O)cc(CC)n1 (centres unmarked) |  | 92 to 100 °C | 
CCCOc1cccc(C2(c3ccncc3)N=C(N)N(C)C2=O)c1 (centres unmarked) [Example 52, 2-Amino-3-methyl-5-(3-propoxyphenyl)-5-pyridin-4-yl-3,5-dihydro-4H-imidazol-4-one] |  | 173 to 175 °C | 
CN1C(=O)C(c2ccncc2)(c2cccc(-c3cccc(F)c3)c2)N=C1N (centres unmarked) [Example 53] | 0.01 to 0.1 µM |  | 
CN1C(=O)C(c2cccc(-c3cccnc3F)c2)(c2ccncc2F)N=C1N (centres unmarked) [Example 58] | 0.01 to 0.1 µM | 237 to 238 °C | 
CN1C(=O)C(c2ccncc2)(c2cccc(-c3ccc(C#N)s3)c2)N=C1N (centres unmarked) [Example 50] | 0.11 to 1 µM | 220 to 222 °C | 
CN1C(=O)C(c2ccncc2)(c2cccc(-c3cccc(OC(F)(F)F)c3)c2)N=C1N (centres unmarked) [Example 54] | 0.11 to 1 µM | 208 to 210 °C | 
CN1C(=O)C(c2ccncc2)(c2cccc(-c3cccc(F)c3F)c2)N=C1N (centres unmarked) [Example 40] | 0.01 to 0.1 µM |  | 
CN1C(=O)C(c2ccncc2)(c2cccc(-c3ccsc3)c2)N=C1N (centres unmarked) [Example 46] |  | 217 to 219 °C | 
CN1C(=O)C(c2ccccc2)(c2cccnc2)N=C1N (centres unmarked) [Example 28] |  | 205 to 206 °C | > 1 µM
CN1C(=O)C(c2cccnc2)(c2cccc(-c3ccccc3)c2)N=C1N (centres unmarked) [Example 27] |  | 212 to 214 °C | 0.11 to 1 µM
CN1C(=O)C(c2ccncc2)(c2cccc(-c3cccc(CO)c3)c2)N=C1N (centres unmarked) [Example 36] | 0.11 to 1 µM | 177 to 179 °C | 
CN1C(=O)C(c2ccncc2)(c2cccc(-c3cc(C#N)ccc3F)c2)N=C1N (centres unmarked) [Example 41] | 0.01 to 0.1 µM | 213 to 215 °C | 
CN1C(=O)C(c2ccncc2)(c2cccc(-c3cccc(C(F)(F)F)c3)c2)N=C1N (centres unmarked) [Example 32] | 0.11 to 1 µM | 234 °C | 
CN1C(=O)C(c2ccncc2)(c2cccc(-c3cccc(C#N)c3)c2)N=C1N (centres unmarked) [Example 55] | 0.01 to 0.1 µM |  | 
CN1C(=O)C(c2ccncc2)(c2cccc(-c3cc(F)cc(F)c3)c2)N=C1N (centres unmarked) [Example 31] | 0.01 to 0.1 µM |  | 
COc1cccc(-c2cccc(C3(c4ccncc4)N=C(N)N(C)C3=O)c2)c1 (centres unmarked) [Example 34] | 0.01 to 0.1 µM |  | 
Cc1cc(C2(c3cccc(-c4cncnc4)c3)N=C(N)N(C)C2=O)ccn1 (centres unmarked) [Example 61] | 0.01 to 0.1 µM |  | 
Cc1cc(C2(c3cccc(-c4cccnc4)c3)N=C(N)N(C)C2=O)ccn1 (centres unmarked) [Example 60] | 0.01 to 0.1 µM |  | 
CN1C(=O)C(c2ccncc2)(c2cccc(-c3cccnc3)c2)N=C1N (centres unmarked) [Example 44] | 0.01 to 0.1 µM |  | 
CN1C(=O)C(c2ccncc2)(c2cccc(-c3ccoc3)c2)N=C1N (centres unmarked) [Example 45] |  | 113 to 115 °C | 
CN1C(=O)C(c2ccccc2)(c2ccncc2)N=C1N (centres unmarked) [Example 23, 2-Amino-3-methyl-5-phenyl-5-pyridin-4-yl-3,5-dihydro-4H-imidazol-4-one] | > 1 µM |  | 
